Entries after “also recorded” stand apart in the source; their conditions may differ.
Legend:
ISCU [1] = assay: Immunoblot and densitometry of ISCU and GSTP1 in PASMCs; format: cell-based, human; conditions: IL-6/sIL-6R + hypoxia, BRD2889 1 uM
Description: (§1) BRD2889 (1 uM) vs. vehicle control were added, as indicated, and placed into a hypoxia chamber for 24 h. The hypoxia chamber (modular incubator chamber) was obtained from Billups-Rothenberg Inc. (Del Mar, Cali) and placed in regulated CO2 incubator at 37° C.
(§2) Immunoblot and densitometry: Cells were lysed in RIPA buffer (Sigma) along with 1× protease inhibitor cocktail (Sigma). Protein lysate was resolved by gradient 4%-15% SDS-PAGE gels and transferred onto a 0.2 μm PVDF membrane (Bio-Rad). Membranes were blocked in 5% non-fat milk in 1×PBST buffer for one hour at room temperature. Later, they were incubated in the presence of the primary antibody overnight at 4° C., and then appropriate HRP-conjugated secondary antibodies (Life Technologies). The following antibodies were used: human LGALS8 (AF1305, RnD Systems), mouse/rat Lgals8 ([…], Abcam), pSTAT1 (ab29045, Abcam) and STAT1 (ab47425, Abcam), GSTP1 (ab153949, Abcam), ISCU (14812-1-AP, Pointech), Glutathione (ab19534, Abcam), HIF2A (NB100-122, Novous), α-Tubulin (CP06, Millipore sigma), and ACTB (sc-47778, Santa Cruz). The immunoreactive bands were visualized with the Chemidoc XRS+ system (Bio-Rad) using SuperSignal West Femto chemiluminescent substrates (Thermo Fisher Scientific). The images were later quantified using AlphaEaseFC software (Alpha Innotech).

PAECs = assay: RT-qPCR gene expression in PAECs; format: cell-based, human
Description: The hypoxia chamber (modular incubator chamber) was obtained from Billups-Rothenberg Inc. (Del Mar, Cali) and placed in regulated CO2 incubator at 37° C.
(§3) RT-qPCR analysis: Cells were lysis in 1 ml of QiaZol reagent (Qiagen). Total RNA content was extracted using the RNeasy kit (Qiagen), according to the manufacturer's instructions. Total RNA concentration was determined using a BioTek Synergy multimode plate reader. Messenger RNAs were reverse transcribed to generate cDNA using the Multiscript RT kit (Thermo Fisher Scientific). cDNA for specific gene targets was amplified and quantified via fluorescently-labeled Taqman primer sets and Taqman fast advanced master mix (Thermo Fisher Scientific) using an Applied Biosystems QuantStudio 6 Flex Real-Time PCR System.

PASMCs = assay: RT-qPCR gene expression in PASMCs; format: cell-based, human; conditions: hypoxia, BRD2889 5 uM
Description: Cell culture: Primary human pulmonary artery endothelial cells (PAECs) and human pulmonary artery smooth muscle cells (PASMCs) were purchased from Lonza (302-05A, CC-2581). Of note, the same two male donors were the source of all PAECs in the experiments shown. Two additional male donors were the source for all PASMCs in the experiments shown. Cells from these and any donors were characterized by flow cytometry for consistent expression of cell surface markers and by RNA (RT-qPCR) analysis of endothelial and smooth muscle gene expression. PAECs were cultured in EGM-2 media (CC-3121) along with supplements (CC-4133), and PASMCs were cultured in SmGM-2 culture media (Lonza, CC-3182) at 5% CO2 in a humidified incubator.
as §3

hypoxic IL-6 Tg mice = assay: Chronically hypoxic IL-6 transgenic PAH mouse model; format: in vivo, IL-6 transgenic mice (C57B/6 background)
Description: Pulmonary-specific IL-6 transgenic mice (C57B/6 background) were described previously (Steiner M K et al. Circ Res. 2009, 104, 236-244, 228p following 244). These mice were bred in house, and 12 week old male transgenic mice vs. control littermates were compared. Mice were injected i.p. every 3 days with vehicle control (2.5% DMSO) vs. BRD2889 (5 mg/kg vs. […] Circ Res. 2009, 104, 236-244, 228p following 244).
Rodent echocardiography: Echocardiography was performed using a 15-45M Hz transthoracic transducer and a Visual Sonics Vevo 3100 system (Fujifilm). Inhaled isoflurane anesthesia was used at 2% in 100% 02 during positioning and hair removal and then decreased to isoflurane 0.8% during imaging.

ISCU [2] = assay: Immunoblot and densitometry of ISCU and GSTP1 in PAECs; format: cell-based, human
Description: as §1, §2

[3] = BRD2889 10 mg/kg vs vehicle, 10 days, 10 mg/kg
[4] = BRD2889 5 and 10 mg/kg i.p. every three days
[5] = PAECs, IL-6/sIL-6R + hypoxia, BRD2889 1 uM

COc1ccc(C#CC2CCCN(C(=O)/C=C/c3cc(OC)c(OC)c(OC)c3)C2=O)cc1 (centres unmarked) [BRD2889, (E)-3-((4-methoxyphenyl)ethynyl)-1-(3-(3,4,5-trimethoxyphenyl)acryloyl)piperidin-2-one]
GSTP1 protein expression (ISCU [1]): did not affect | ISCU protein (ISCU [1]): failed to rescue ISCU | inflammatory gene transcripts (EDN1, VCAM1, ICAM1) (PAECs; IL-6/sIL-6R + hypoxia): normalized this upregulation | ISCU transcript (PAECs; hypoxia 48 hrs, BRD2889 5 uM): fully reversing the hypoxic decrease of ISCU; also recorded: rescued by BRD2889 | expression of C43 genes MID2, BANP, AGTRAP (PAECs; hypoxia 48 hrs, BRD2889 5 uM): unaffected in hypoxia by BRD2889 | mTOR transcript (PAECs; hypoxia 48 hrs, BRD2889 5 uM): partially reversing the decrease of mTOR; also recorded: rescued by BRD2889 | ISCU transcript (PASMCs): unaffected by BRD2889 | mTOR transcript (PASMCs): no change in mTOR | heart rate (hypoxic IL-6 Tg mice; [3]): No significant differences | left ventricular function (fractional shortening, ejection fraction, posterior wall thickness) (hypoxic IL-6 Tg mice; [3]): No significant differences | Fulton index (RV/LV+S) (hypoxic IL-6 Tg mice; [4]): dose-dependent reduction; also recorded: reduced | ISCU in arterioles / CD31+ endothelium (hypoxic IL-6 Tg mice; [4]): rescued ISCU; also recorded: increased | RVSP (hypoxic IL-6 Tg mice; [4]): dose-dependent reduction; also recorded: reduced | arteriolar muscularization / pulmonary arteriolar remodeling (hypoxic IL-6 Tg mice; [4]): reduction; also recorded: reduced | cleaved caspase-3 (CC-3), endothelial apoptosis (hypoxic IL-6 Tg mice; [4]): reduction; also recorded: decreased | lung total GST enzyme activity (hypoxic IL-6 Tg mice; [4]): dose-dependent reduction; also recorded: decreased lung GST activity in a dose-dependent manner | GSTP1 expression (ISCU [2]; [5]): without altering GSTP1 expression | ISCU expression (immunoblot) (ISCU [2]; [5]): reversed the decrease in ISCU expression; also recorded: reversed the IL-6/R+hypoxic decrease | GSTP1 expression (ISCU [2]; hypoxic PAECs): did not affect GSTP1 expression | ISCU protein levels (ISCU [2]; hypoxic PAECs): reversed hypoxia-dependent reduction of ISCU protein levels; also recorded: ISCU levels were increased; also recorded: reversed hypoxic alterations; also recorded: reversed these findings; also recorded: also reversed the hypoxia-induced reduction of ISCU

Reference: US20250288572A1, “COMPOSITIONS AND METHODS FOR TREATING PULMONARY VASCULAR DISEASE” (UNIVERSITY OF PITTSBURGH-OF THE COMMONWEALTH SYSTEM OF …, priority 2022, published 2025)
